Key:
Psf3 [1] = biological target: T1, Psf3 (Pseudomonas syringae, UniProt I6R485); test: NADPH consumption at […] nm, Michaelis-Menten fit; format: biochemical; settings: 250 uM NADPH (saturating), 50 mM HEPES pH 7.5
T1 sequence (I6R485 1-295): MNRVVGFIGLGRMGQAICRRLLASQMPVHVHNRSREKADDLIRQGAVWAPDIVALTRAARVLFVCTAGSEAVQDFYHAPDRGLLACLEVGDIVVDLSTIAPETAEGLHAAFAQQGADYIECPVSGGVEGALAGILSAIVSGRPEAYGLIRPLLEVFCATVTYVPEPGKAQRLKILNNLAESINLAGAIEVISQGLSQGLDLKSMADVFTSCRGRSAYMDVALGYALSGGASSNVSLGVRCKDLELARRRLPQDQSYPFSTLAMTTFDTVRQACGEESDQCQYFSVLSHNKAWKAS

Psf3 [2] = biological target: T1, Psf3; test: […] NMR of reverse; format: biochemical; settings: 2 mM NADP+, 1 mM (S)-2-HPP, pH 7.5, room temperature

`CC(=O)CP(=O)(O)O` [2-OPP] was tested, and the KM (Psf3 [1]) was “Kinetic parameters, with respect to 2-OPP and determined by monitoring the consumption of NADPH”.

`C[C@H](O)CP(=O)(O)O` [(S)-2-HPP] was tested, and the “31P NMR of reverse (oxidation) reaction” value (Psf3 [2]) was “reaction with (S)-2-HPP resulted in a new peak that is consistent with 2-OPP”.
